Results: patent US20250177502A1, “THROMBIN AND FIBRINOGEN AS TARGETS FOR ATOPIC DERMATITIS DIAGNOSIS AND TREATMENT” (Children's Hospital Medical Center, priority 2022, published 2025)

Assays:
[1] = Bivalirudin solubility and precipitation in aqueous solutions; type: physicochemical
Protocol: Direct thrombin inhibitor bivalirudin was formulated in a lyophilized formulation containing 50 mg/mL of bivalirudin, 25 mg/mL of mannitol, and NaOH for pH adjustment to 5-6. […] The lyophilized bivalirudin was reconstituted with 5 mL water to a concentration of 50 mg/mL.

[2] = Absorption of topically applied bivalirudin: prothrombin time on homogenized ex vivo mouse skin samples; type: in vitro ADME; conditions: reconstituted bivalirudin 50 mg/mL applied to ex vivo mouse skin for 0, 5 or 15 minutes, then washed
Protocol: Reconstituted bivalirudin was applied to ex vivo mouse skin samples for 0, 5, or 15 minutes then repeatedly washed, the samples were homogenized, and finally a prothrombin time was run on the homogenized skin samples. […] FIG. 10 illustrates absorption of topically applied bivalirudin by measuring prothrombin time.

In the case of `CC[C@H](C)[C@H](NC(=O)[C@H](CCC(=O)O)NC(=O)[C@H](CCC(=O)O)NC(=O)[C@H](Cc1ccccc1)NC(=O)[C@H](CC(=O)O)NC(=O)CNC(=O)[C@H](CC(N)=O)NC(=O)CNC(=O)CNC(=O)CNC(=O)CNC(=O)[C@@H]1CCCN1C(=O)[C@H](CCCNC(=N)N)NC(=O)[C@@H]1CCCN1C(=O)[C@H](N)Cc1ccccc1)C(=O)N1CCC[C@H]1C(=O)N[C@@H](CCC(=O)O)C(=O)N[C@@H](CCC(=O)O)C(=O)N[C@@H](Cc1ccc(O)cc1)C(=O)N[C@@H](CC(C)C)C(=O)O` [bivalirudin], the “solubility: influence of pH” value [1] was “influenced by pH”, the “solubility: influence of temperature and addition of mannitol” value [1] was “not affected” and the “absorption by skin and retained function (prothrombin time of homogenized skin)” value [2] was “is absorbed and retains function”.
